Data on eleven compounds can be found in ChEMBL document CHEMBL1201862, “PubChem BioAssay data set” (2004).

Molecules are shown by their SMILES.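 Five compound concentrations were applied to cells in 96-well plates for 48 hours; endpoints were derived by simple linear interpolation of the resulting dose-response curve. GI50 = concentration required for 50% inhibition of growth.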 The source made the active and inactive calls. Cut-off read from the data, not from the text of the source: active = GI50 up to about 1.1 µM and inactive = higher.

What is called GI50 is the concentration that inhibits growth by half.

Among the test systems are HCT-116; HCT-15; OVCAR-4; A498; UACC-257; DU-145; NCI-H226; NCI-H23; HT-29; NCI-H460; MOLT-4; SK-MEL-28; EKVX; SK-OV-3; A549; OVCAR-8; IGROV-1; SF-268; MDA-MB-435; Malme-3M.
Holding throughout (assay): DTP human tumour cell line panel, 48 h

Turning to `O=c1cc(-c2ccc(O)cc2)oc2cc(O[C@@H]3O[C@H](CO)[C@@H](O)[C@H](O)[C@H]3O)cc(O)c12` [APIGETRIN], the GI50 in the assay with HCT-116 was 33.4 µM (inactive); in the assay with HCT-15, 16.6 µM; in the assay on OVCAR-4, 28.2 µM (inactive); in the assay on A498, 67.1 µM (inactive); in the assay with UACC-257, > 100 µM (inactive); in the assay with DU-145, 58.3 µM (inactive). For the same compound, the GI50 in the assay on NCI-H226 is 26.7 µM (inactive); in the assay with NCI-H23, 50.8 µM (inactive); in the assay with HT-29 it was 53 µM (inactive); with NCI-H460, 34.2 µM (inactive); with MOLT-4, 32.5 µM (inactive); in the assay on SK-MEL-28 it was 98.4 µM (inactive). The GI50 was > 100 µM (inactive) with EKVX; > 100 µM (inactive) with SK-OV-3; 51.3 µM (inactive) in the assay on A549; 31.7 µM (inactive) in the assay on OVCAR-8; 57.9 µM (inactive) in the assay with IGROV-1; 51.3 µM (inactive) in the assay on SF-268. The GI50 in the assay on MDA-MB-435 is 71.6 µM (inactive).
For the compound `CN(O)C(=O)CCC(NC(=O)CCC(N)C(=O)O)C(=O)NCC(=O)O` (stereo not drawn), the GI50 is > 100 µM (inactive) with HCT-116; greater than 100 µM in the assay with HCT-15; > 100 µM (inactive) in the assay on OVCAR-4; > 100 µM (inactive) in the assay with A498; > 100 µM (inactive) in the assay with UACC-257; > 100 µM (inactive) with DU-145. Moreover, the GI50 in the assay on NCI-H226, in the assay with NCI-H23, with HT-29, in the assay on NCI-H460, with MOLT-4 and in the assay with SK-MEL-28 was > 100 µM (inactive) each time. Also, the GI50 with EKVX, in the assay with SK-OV-3, in the assay on A549, in the assay on OVCAR-8, in the assay with IGROV-1 and in the assay with SF-268 was > 100 µM (inactive) each time. The GI50 in the assay with MDA-MB-435 is > 100 µM (inactive).
For the compound `CCCCn1cnc2c(SC)ncnc21`, the GI50 with HCT-116 was > 100 µM (inactive); in the assay with HCT-15, greater than 100 µM; in the assay with OVCAR-4 it was > 100 µM (inactive); with A498, > 100 µM (inactive); in the assay on UACC-257, > 100 µM (inactive); in the assay on DU-145 it was > 100 µM (inactive). For the same compound, the GI50 with Malme-3M is > 100 µM (inactive); in the assay with NCI-H23, > 100 µM (inactive); in the assay with HT-29, > 100 µM (inactive); with NCI-H460, > 100 µM (inactive); in the assay with MOLT-4 it was 28.4 µM (inactive); with SK-MEL-28, > 100 µM (inactive). Also, the GI50 with EKVX was 41.7 µM (inactive); in the assay on SK-OV-3, > 100 µM (inactive); with A549, > 100 µM (inactive); in the assay with OVCAR-8 it was > 100 µM (inactive); with IGROV-1, > 100 µM (inactive); in the assay with SF-268 it was > 100 µM (inactive). Further, in the assay with MDA-MB-435, the GI50 is > 100 µM (inactive).
As for `CC(=O)Oc1ccc(/C=C/C(=O)NCC(NC(=O)/C=C/c2ccc(OC(C)=O)c(OC(C)=O)c2)C(=O)O)cc1OC(C)=O` (stereo not drawn), the GI50 with HCT-116 was > 100 µM (inactive); in the assay on HCT-15, greater than 100 µM; in the assay with OVCAR-4 it was > 100 µM (inactive); in the assay with A498, > 100 µM (inactive); in the assay with UACC-257 it was > 100 µM (inactive); in the assay with DU-145, > 100 µM (inactive). Also, the GI50 with NCI-H226 was > 100 µM (inactive); in the assay with Malme-3M, > 100 µM (inactive); with NCI-H23, > 100 µM (inactive); in the assay on HT-29 it was 50.8 µM (inactive); in the assay on NCI-H460, > 100 µM (inactive); with MOLT-4 it was 20.1 µM (inactive). In addition, the GI50 in the assay on SK-MEL-28, with EKVX, with A549, in the assay on OVCAR-8, with IGROV-1 and with SF-268 was > 100 µM (inactive) throughout. Besides, the GI50 in the assay on MDA-MB-435 is > 100 µM (inactive).
In the case of `Cc1cc2c([N+](=O)[O-])cc3c(c2o1)C(=O)C=CC3=O`, the GI50 in the assay on HCT-116 was 5.51 µM (inactive); in the assay with HCT-15 it was 15 µM; with OVCAR-4, 16.1 µM (inactive); in the assay with A498, 15.5 µM (inactive); with UACC-257, 2.62 µM (inactive); with DU-145, 7.93 µM (inactive). For the same compound, the GI50 in the assay on NCI-H226 was 28.6 µM (inactive); with NCI-H23 it was 17.7 µM (inactive); with HT-29, 2.12 µM (inactive); with NCI-H460, 18.5 µM (inactive); with MOLT-4 it was 0.415 µM (active); with SK-MEL-28, 8.85 µM (inactive). Besides, the GI50 in the assay on EKVX is 3.37 µM (inactive); in the assay with SK-OV-3, 29.5 µM (inactive); in the assay with A549, 18.3 µM (inactive); in the assay with OVCAR-8, 19.6 µM (inactive); in the assay on IGROV-1, 7.41 µM (inactive); in the assay on SF-268, 12.4 µM (inactive). In addition, the GI50 in the assay with MDA-MB-435 is 3.2 µM (inactive).
On to `COC(OC)[C@@H]1OC[C@H](n2cnc3c(N)ncnc32)[C@H]1O`, for which the GI50 in the assay on HCT-116 is > 100 µM (inactive); in the assay with HCT-15 it was greater than 100 µM; with OVCAR-4, > 100 µM (inactive); in the assay with A498 it was > 100 µM (inactive); with UACC-257, > 100 µM (inactive); in the assay on DU-145, > 100 µM (inactive). Moreover, the GI50 with NCI-H226, in the assay on NCI-H23, in the assay with HT-29, in the assay with NCI-H460, with MOLT-4 and in the assay on SK-MEL-28 was > 100 µM (inactive) throughout. Besides, the GI50 in the assay on EKVX, in the assay on SK-OV-3, in the assay on A549, in the assay with IGROV-1, with SF-268 and with MDA-MB-435 was > 100 µM (inactive) each time.
In the case of `O=C1/C(=C2\Sc3c(ccc(Cl)c3Cl)C2=O)Sc2c1ccc(Cl)c2Cl`, the GI50 was > 100 µM (inactive) in the assay with HCT-116; greater than 100 µM with HCT-15; > 100 µM (inactive) with OVCAR-4; > 100 µM (inactive) in the assay with A498; > 100 µM (inactive) in the assay with UACC-257; > 100 µM (inactive) in the assay with DU-145. For the same compound, the GI50 in the assay on NCI-H226, with Malme-3M, in the assay on NCI-H23, with HT-29, with NCI-H460 and with MOLT-4 was > 100 µM (inactive) in each case. The GI50 in the assay with SK-MEL-28, with EKVX, in the assay on A549, with OVCAR-8, in the assay with IGROV-1 and in the assay on SF-268 was > 100 µM (inactive) in each case. Also, the GI50 in the assay with MDA-MB-435 is > 100 µM (inactive).
Consider `CCOC(=O)COc1ccc2c(C)cc(=O)oc2c1`, for which the GI50 was > 100 µM (inactive) in the assay on HCT-116; greater than 100 µM in the assay on HCT-15; > 100 µM (inactive) in the assay on OVCAR-4; > 100 µM (inactive) with A498; > 100 µM (inactive) with UACC-257; > 100 µM (inactive) in the assay with DU-145. Besides, the GI50 was > 100 µM (inactive) in the assay on NCI-H226; > 100 µM (inactive) in the assay on Malme-3M; > 100 µM (inactive) in the assay on NCI-H23; > 100 µM (inactive) in the assay on HT-29; 45.8 µM (inactive) in the assay with NCI-H460; > 100 µM (inactive) with MOLT-4. The GI50 with SK-MEL-28, in the assay on EKVX, in the assay with A549, with OVCAR-8, with IGROV-1 and in the assay on SF-268 was > 100 µM (inactive) in each case. Besides, in the assay on MDA-MB-435, the GI50 is > 100 µM (inactive).
As to `Brc1ccc(-c2[nH]c3ccccc3c2/N=N\c2ccccc2)cc1`, the GI50 was 19 µM (inactive) in the assay with HCT-116; 16.3 µM with HCT-15; 16.3 µM (inactive) in the assay on OVCAR-4; 25.4 µM (inactive) in the assay with A498; 19.3 µM (inactive) in the assay on UACC-257; 17.5 µM (inactive) in the assay on DU-145. Further, the GI50 in the assay with Malme-3M was 19.1 µM (inactive); in the assay on NCI-H23, 18.2 µM (inactive); with NCI-H460 it was 17.1 µM (inactive); with MOLT-4, 16.9 µM (inactive); with SK-MEL-28, 21.2 µM (inactive); in the assay on EKVX it was 16.6 µM (inactive). Moreover, the GI50 with SK-OV-3 is 18.9 µM (inactive); in the assay with A549, 16.6 µM (inactive); with IGROV-1, 12.1 µM (inactive); in the assay on SF-268 it was 17.9 µM (inactive); in the assay with MDA-MB-435 it was 19.1 µM (inactive).
As to `C1=N\CCN2CCN(CC/N=C\c3ccccc3OCc3cccc(n3)COc3ccccc3/1)CC2`, the GI50 in the assay with HCT-116 was 2.61 µM (inactive); in the assay on HCT-15, 6.01 µM; in the assay on OVCAR-4 it was 6.15 µM (inactive); in the assay on A498 it was 40.9 µM (inactive); in the assay on UACC-257, 10.5 µM (inactive); with DU-145, 12.8 µM (inactive). In addition, the GI50 with Malme-3M was 6.12 µM (inactive); in the assay on NCI-H23 it was 14.6 µM (inactive); in the assay on HT-29, 8.2 µM (inactive); with NCI-H460, 38.2 µM (inactive); in the assay with MOLT-4, 4.6 µM (inactive); with SK-MEL-28 it was 13.8 µM (inactive). In addition, the GI50 is 13 µM (inactive) in the assay on EKVX; 16.9 µM (inactive) in the assay on SK-OV-3; 44.6 µM (inactive) with A549; 11.8 µM (inactive) with OVCAR-8; 11.2 µM (inactive) in the assay with IGROV-1; 2.15 µM (inactive) in the assay with SF-268. Besides, the concentration for 50% growth inhibition (GI50) in the assay on MDA-MB-435 was 0.973 µM (active).
As for `O=C1CCCCC/C1=C\c1ccc([N+](=O)[O-])cc1`, the GI50 in the assay with HCT-116 is 22.7 µM (inactive); with A498 it was 35.2 µM (inactive); in the assay on UACC-257, 20.9 µM (inactive); in the assay on DU-145, 41.4 µM (inactive); in the assay with Malme-3M, 43.7 µM (inactive); with HT-29 it was 30.3 µM (inactive). Also, the GI50 is 20.1 µM (inactive) with NCI-H460; 41.7 µM (inactive) in the assay with MOLT-4; 65 µM (inactive) in the assay with SK-MEL-28; 35.3 µM (inactive) in the assay with EKVX; 36.1 µM (inactive) with SK-OV-3; 36.5 µM (inactive) in the assay on A549. The GI50 in the assay with OVCAR-8 was 38.8 µM (inactive); in the assay with IGROV-1, 16.3 µM (inactive); with SF-268, 30.5 µM (inactive); in the assay on MDA-MB-435, 38.1 µM (inactive).
